According to patent US9637457B2, “Process for the stereoselective preparation of a pyrazole-carboxamide” (Syngenta Participations AG, priority 2014, dated 2017):
Read-outs that look alike come from different tables or passages of the source.

Key:
fungi [1] = conditions: racemic compound, described in WO 2010/063700; cited from earlier work
fungi [2] = test: fungicidal activity (general statement, no test described); conditions: enantiomer Ib compared with enantiomer Ia / racemate

SMILES: CON(C(=O)c1cn(C)nc1C(F)F)C(C)Cc1c(Cl)cc(Cl)cc1Cl (racemic) [3-(difluoromethyl)-N-methoxy-1-methyl-N-[1-methyl-2-(2,4,6-trichlorophenyl)ethyl]pyrazole-4-carboxamide]
- fungicidal activity (fungi [1]): excellent fungicidal activity

SMILES: CON(C(=O)c1cn(C)nc1C(F)F)[C@@H](C)Cc1c(Cl)cc(Cl)cc1Cl [Ib, 3-(difluoromethyl)-N-methoxy-1-methyl-N-[(1S)-1-methyl-2-(2,4,6-trichlorophenyl)ethyl]pyrazole-4-carboxamide]
- fungicidal activity (fungi [2]): more prominent fungicidal activity
